What was measured:
[1] = target: BK currents, cloned α-hSlo and β-bSlo in CHO cells (Homo sapiens, UniProt Q12791); experiment: Electrophysiological studies: whole-cell patch-clamp of BK currents; format: cell-based; details: compound 20 μM, steady-state BK current, free internal Ca2+ 1×10^−6M
Method: Electrophysiological Studies:
CHO cells permanently transfected with cloned α-hSlo and β-bSlo were maintained as described above and used for electrophysiological characterisation, The whole-cell configuration of the patch-clamp technique was used to determine the effect of modulators on BK currents in these cells. The cell line expressing functional BK currents (Zhou et al., Pflügers Arch. 436, p.725 (1998)) were plated onto glass cover slips with a density of 1-5×10^4 cells/cover slip, incubated (37° C., 5% CO2) and used for patch-clamp experiments within 24-48 h. Cells were bathed in mammalian ringer solutions containing (in mM): 160NaCl, 4.5KCl, 2CaCl2, 1MgCl2, 10 HEPES, adjusted to pH 7.4, 290-310 mOsm. The internal pipette solution contained (in mM): 160KCl, 2CaCl2, 1MgCl2, 10 HEPES, EGTA was added to reach a free [Ca^2+]internal=1×10^−6M, adjusted to pH 7.2, 290-310 mOsm. Borosilicate pipettes with a resistance of 2-3 MΩ were filled with the internal solution and mounted on an appropriate holder. Prior to measurements a recording chamber was mounted onto the cell-plated cover slips and the cells were perfused with a simple syringe driven perfusion system. Compounds were added in the final concentration ([…]) to the bath solution using the same system. An EPC-9 patch-clamp amplifier with Pulse and PulseFit software (HEKA) was used to record and analyze currents.
After addition of the compounds to the bath solution their modulating effect was determined by the increase or decrease of specific BK currents after reaching steady-state relative to the BK current before application of drugs (see Table II).

[2] = target: T1, BK potassium channel, cloned hSlo (α-hSlo and β-bSlo) in CHO cells (Homo sapiens, UniProt Q12791); experiment: Em-Assay: membrane potential with voltage sensitive dye DiBAC(4)3, fluorescence plate reader; format: cell-based; details: compound 50 μM; NS004 25 or 50 μM; hSlo transfected CHO cells; change in DiBAC(4)3 fluorescence intensity
T1 construct: expressed in transfected cells; host or cells: CHO cells, permanently transfected
Source text: The large conductance, voltage-dependent and Ca^2+-activated potassium channel BK is a potassium selective ion channel and belongs to the subfamily of KCa channels. Four BK alpha-subunits form a functional channel that can be regulated by intracellular Ca^2+ concentration, membrane voltage, and other mechanisms like phosphorylation states or beta subunits. To test the biological activity of the compounds, we applied two different techniques, a fluorescence based assay using a voltage sensitive dye (Em-Assay) as well as exploiting electrophysiological methods.
CHO cells permanently transfected with cloned hSlo (α-hSlo and β-bSlo), yielding typical BK potassium currents (Zhou et al., Pflügers Arch., 436: 725-734 (1998), were used for the evaluation of compound activity. Activation or inhibition of BK channels in these cells leads to a change of the electrochemical gradient causing a hyperpolarized or depolarised membrane potential, respectively.
To determine changes in the membrane potential of the cells we used the voltage sensitive dye DiBAC(4)3 (Molecular Probes) in a kinetic assay system using a fluorescent plate reader (Manning and Sontheimer, J. Neurosci, Meth., 91: 73-81 (1999). The anionic bis-oxonol DiBAC(4)3 is a voltage sensitive dye which partitions from the extracellular environment into the cell where it reversibly binds to intracellular proteins, a kinetic process depending on the membrane potential of the cell. At depolarised potentials (i.e. at a reduced K^+ efflux due to blocked K^+ channels) the dye accumulates in the cell leading to an increased fluorescence intensity, due to its increased fluorescence if bound to cellular proteins. At hyperpolarized potentials (i.e. at an increased K^+ efflux due to the opening of K^+ channels), the dye partitions out of the cell causing a decreased fluorescence intensity.
hSlo transfected CHO cells where maintained in DMEM supplemented with 10% FCS, 250 μg/ml Geneticin, 100 μg/ml Hygromycin, 1×HT-Supplement, and 1×Non-essential Amino Acids and cultured in a humidified CO2 incubator. After trypsination, cells where plated with a density of 5×10^4 cells per well on a clear 96-well plate and incubated for 24 h. Cells where washed once with PBS, once with PBS containing 20 mM HEPES (adjusted to pH 7.4 with NaOH) and 2 μM DIBAC(4)3 (DPBS-DiBAC solution). 180 μl of the dPBS-DiBAC solution was then added to the cells and the plate incubated for 30-60 min at 37° C. During this time the dye could partition into the cells and reach a certain steady-state distribution, depending on the resting membrane potential. Test and reference compounds were stored as DMSO stock solutions and diluted in dPBS-DiBAC solution to the desired concentration.
Fluorescence intensity (Ex.: 485 nm/Em.: 520 nm) of each well was detected in the plate reader (Fluostar, BMG) every 60 seconds. After recording the baseline fluorescence for 7 minutes, 20 μl test—and reference compounds were added and the fluorescence intensity was detected for additional 15 minutes. Background was subtracted, data values were normalized and expressed as a change in fluorescence intensity against time. The change in fluorescence intensity caused by the test compounds was evaluated, compared to the effect of the reference compound NS004, and the ratio was determined (see Table I).

T1 sequence (Q12791 1-1178 isoform Q12791-5): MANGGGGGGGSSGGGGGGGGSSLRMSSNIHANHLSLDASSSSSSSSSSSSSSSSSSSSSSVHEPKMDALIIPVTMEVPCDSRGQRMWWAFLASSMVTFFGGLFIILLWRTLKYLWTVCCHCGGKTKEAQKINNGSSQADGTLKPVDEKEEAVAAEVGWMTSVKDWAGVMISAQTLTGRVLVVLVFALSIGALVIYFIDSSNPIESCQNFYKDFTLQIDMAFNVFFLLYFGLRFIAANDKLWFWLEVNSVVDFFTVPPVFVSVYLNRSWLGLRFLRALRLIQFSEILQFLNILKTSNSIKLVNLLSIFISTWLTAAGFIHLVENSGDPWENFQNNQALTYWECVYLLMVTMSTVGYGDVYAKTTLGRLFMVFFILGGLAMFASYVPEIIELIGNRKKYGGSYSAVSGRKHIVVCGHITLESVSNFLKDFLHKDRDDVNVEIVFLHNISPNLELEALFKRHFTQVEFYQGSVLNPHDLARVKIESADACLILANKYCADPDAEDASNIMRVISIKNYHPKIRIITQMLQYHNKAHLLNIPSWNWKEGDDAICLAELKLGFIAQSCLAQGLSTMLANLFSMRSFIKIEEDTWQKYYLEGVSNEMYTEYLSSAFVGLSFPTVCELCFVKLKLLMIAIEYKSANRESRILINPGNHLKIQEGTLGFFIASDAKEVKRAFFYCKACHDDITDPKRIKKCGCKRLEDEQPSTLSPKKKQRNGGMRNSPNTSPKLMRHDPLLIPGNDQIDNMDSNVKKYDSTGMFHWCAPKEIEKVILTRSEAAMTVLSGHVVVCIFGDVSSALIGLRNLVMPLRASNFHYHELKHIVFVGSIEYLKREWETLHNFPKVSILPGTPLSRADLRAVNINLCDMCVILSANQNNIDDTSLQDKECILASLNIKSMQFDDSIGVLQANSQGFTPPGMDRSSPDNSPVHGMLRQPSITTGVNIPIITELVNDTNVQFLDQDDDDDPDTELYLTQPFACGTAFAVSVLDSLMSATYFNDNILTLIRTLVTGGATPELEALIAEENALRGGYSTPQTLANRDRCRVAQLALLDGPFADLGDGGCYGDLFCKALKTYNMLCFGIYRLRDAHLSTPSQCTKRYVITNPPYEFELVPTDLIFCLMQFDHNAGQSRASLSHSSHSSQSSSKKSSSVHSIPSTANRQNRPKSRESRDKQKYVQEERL
T1 sequence (Q28067 2-191 partner limits assumed): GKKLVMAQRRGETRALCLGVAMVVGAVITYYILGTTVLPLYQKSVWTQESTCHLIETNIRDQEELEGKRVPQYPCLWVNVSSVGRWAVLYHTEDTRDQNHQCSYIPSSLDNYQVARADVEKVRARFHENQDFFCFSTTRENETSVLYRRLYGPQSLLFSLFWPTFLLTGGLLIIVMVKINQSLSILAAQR
Chain of BK currents, cloned α-hSlo and β-bSlo in CHO cells (Q12791 whole entry): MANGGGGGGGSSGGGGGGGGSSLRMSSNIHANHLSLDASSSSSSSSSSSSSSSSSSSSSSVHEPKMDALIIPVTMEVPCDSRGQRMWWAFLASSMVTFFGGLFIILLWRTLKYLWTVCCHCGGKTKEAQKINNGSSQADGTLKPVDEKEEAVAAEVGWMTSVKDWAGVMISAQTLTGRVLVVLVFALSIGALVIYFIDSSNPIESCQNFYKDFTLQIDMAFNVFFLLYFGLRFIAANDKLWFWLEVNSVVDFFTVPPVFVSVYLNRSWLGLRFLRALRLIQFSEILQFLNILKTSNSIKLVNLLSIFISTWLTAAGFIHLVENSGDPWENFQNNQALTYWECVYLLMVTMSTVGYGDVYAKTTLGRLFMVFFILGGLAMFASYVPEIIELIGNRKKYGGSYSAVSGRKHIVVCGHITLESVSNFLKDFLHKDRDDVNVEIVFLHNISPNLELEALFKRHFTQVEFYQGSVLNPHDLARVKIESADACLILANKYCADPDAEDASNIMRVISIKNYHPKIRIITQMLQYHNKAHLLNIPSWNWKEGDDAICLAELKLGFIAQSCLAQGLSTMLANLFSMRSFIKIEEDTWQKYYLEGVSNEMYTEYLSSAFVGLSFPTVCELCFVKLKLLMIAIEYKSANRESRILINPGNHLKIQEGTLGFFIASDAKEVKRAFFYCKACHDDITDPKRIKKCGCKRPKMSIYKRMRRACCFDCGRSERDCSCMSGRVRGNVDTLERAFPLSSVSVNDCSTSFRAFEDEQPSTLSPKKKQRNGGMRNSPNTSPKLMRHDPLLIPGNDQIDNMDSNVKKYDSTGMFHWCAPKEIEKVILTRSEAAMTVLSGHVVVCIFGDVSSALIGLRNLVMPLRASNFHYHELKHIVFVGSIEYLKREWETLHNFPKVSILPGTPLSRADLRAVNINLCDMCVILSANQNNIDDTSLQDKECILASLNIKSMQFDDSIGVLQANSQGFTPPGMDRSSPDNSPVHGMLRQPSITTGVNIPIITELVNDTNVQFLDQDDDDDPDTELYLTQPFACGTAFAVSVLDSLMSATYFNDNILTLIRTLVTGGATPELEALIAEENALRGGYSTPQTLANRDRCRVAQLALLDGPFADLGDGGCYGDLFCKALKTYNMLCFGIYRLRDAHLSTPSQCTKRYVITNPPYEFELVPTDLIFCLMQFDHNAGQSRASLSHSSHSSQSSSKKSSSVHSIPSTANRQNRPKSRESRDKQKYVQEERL
Chain of BK currents, cloned α-hSlo and β-bSlo in CHO cells (Q28067 2-191 partner): as the sequence (Q28067 2-191 partner limits assumed) above

SMILES	Effect: ratio of current increase after application of compound relative to the control current before compound application [1]	Em effect: ratio of the compound effect compared to the maximal effect of NS004 [2]
Clc1cc(NCc2ccc3ccccc3c2)ccc1NCc1ccc2ccccc2c1 [Compound 15]	+ (1-1.1 = +)	+++ (>1.5 = +++)
Clc1cccc(CNc2cccc(NCc3cccc(Cl)c3)c2)c1 [Compound 11]	+ (1-1.1 = +)	+ (0-1 = +)
Brc1ccc(CNc2cccc(NCc3ccc(Br)cc3)c2)cc1 [Compound 12]	+ (1-1.1 = +)	+ (0-1 = +)
Clc1cc(NCc2ccc(Br)cc2)ccc1NCc1ccc(Br)cc1 [Compound 13, N^1,N^4-Bis-(4-bromobenzyl)-2-chlorobenzene-1,4-diamine]	+++ (>1.2 = +++)	+++ (>1.5 = +++)
FC(F)(F)c1cc(NCc2cccc(Cl)c2)cc(NCc2ccc3ccccc3c2)c1 [Compound 7, N-(3-Chlorobenzyl)-N′-naphthalen-2-ylmethyl-5-trifluoromethyl-benzene-1,3-diamine]	+ (1-1.1 = +)	+++ (>1.5 = +++)
FC(F)(F)c1cc(NCc2ccc(Br)cc2)cc(NCc2ccc3ccccc3c2)c1 [Compound 6, N-(4-Bromobenzyl)-N′-naphthalen-2-ylmethyl-5-trifluoromethylbenzene-1,3-diamine]	++ (>1, 1-1.2 = ++)	+++ (>1.5 = +++)
Clc1cccc(CNc2ccc(NCc3cccc(Cl)c3)c(Cl)c2)c1 [Compound 14]	+ (1-1.1 = +)	+++ (>1.5 = +++)
Cc1cc(NCc2ccc3ccccc3c2)ccc1NCc1ccc2ccccc2c1 [Compound 16]	–	+ (0-1 = +)
O=[N+]([O-])c1ccc(CNc2cc(NCc3ccc([N+](=O)[O-])cc3)cc(C(F)(F)F)c2)cc1 [Compound 1]	–	+ (0-1 = +)
FC(F)(F)c1cc(NCc2ccc(Br)cc2)cc(NCc2cccc(Cl)c2)c1 [Compound 5]	–	++ (>1-1.5 = ++)

The next lines start with the values.

Effect: ratio of current increase after application of compound relative to the control current before compound application [1]	Em effect: ratio of the compound effect compared to the maximal effect of NS004 [2]	SMILES
+++ (>1.2 = +++)	++ (>1-1.5 = ++)	Fc1cccc(CNc2cccc(NCc3cccc(F)c3)c2)c1 [Compound 35, N,N′-bis-(3-fluorobenzyl)-benzene-1,3-diaimine]
–	+ (0-1 = +)	COc1cccc(CNc2cc(NCc3cccc(OC)c3)cc(C(F)(F)F)c2)c1 [Compound 76, N,N′-bis-(3-methoxybenzyl)-5-trifluoromethylbenzene-1,3-diamine]
–	+ (0-1 = +)	Fc1cccc(F)c1CNc1cccc(NCc2csc3ccc(Cl)cc23)c1 [Compound 49, N-(5-chlorobenzo[b]thiophen-3-ylmetbyl)-N′-(2,6-difluorobenzyl)-benzene-1,3-diamine]
–	++ (>1-1.5 = ++)	Clc1cccc(CNc2cccc(NCc3ccccc3Cl)c2)c1 [Compound 47]
–	+ (0-1 = +)	COc1cccc(CNc2cc(Cl)c(NCc3cccc(OC)c3)c(Cl)c2)c1 [Compound 90, 2,6-dichloro-N,N′-bis-(3-methoxy-benzyl)-benzene-1,4-diamine]
–	+ (0-1 = +)	Fc1ccc(CNc2ccc(NCc3ccc(F)cc3F)cc2)c(F)c1 [Compound 99]
–	+ (0-1 = +)	COc1cccc(CNc2cc(NCc3cccc(Cl)c3)cc(C(F)(F)F)c2)c1 [Compound 82]
–	+ (0-1 = +)	Clc1cc(NCc2ccc(Br)cc2)ccc1NCc1ccccc1 [Compound 19]
–	+ (0-1 = +)	Fc1cccc(F)c1CNc1cccc(NCc2cccc(Cl)c2)c1 [Compound 57, N-(3-chlorobenzyl)-N′-(2,6-difluorobenzyl)-benzene-1,3-diamine]
–	+ (0-1 = +)	Fc1cc(F)cc(CNc2cccc(NCc3ccc(-c4csnn4)cc3)c2)c1 [Compound 53, N-(3,5-difluorobenzyl)-N′-(4-[1,2,3]thiadiazol-4-yl-benzyl)-benzene-1,3-diamine]
–	+ (0-1 = +)	Clc1cccc(CNc2ccc(NCc3ccccc3)c(Cl)c2)c1 [Compound 20, N′-Benzyl-2-chloro-N^4-(3-chlorobenzyl)-benzene-1,4-diamine]
–	+ (0-1 = +)	Fc1cccc(Cl)c1CNc1cccc(NCc2c(F)cccc2Cl)c1 [Compound 29]
